Article PMC11697714, “Strigolactones initiate the formation of haustorium-like structures in Castilleja” (iScience, 2024)
Like-named read-outs stand apart in the source and are kept apart here. Each block holds one molecule with its values, some of them ahead of it.

Key:
KAI2d15 [1] = target: T1, KAI2d15 (Castilleja foliolosa, UniProt A0ABD3DF95); test: differential scanning fluorimetry, SYPRO Orange; format: binding; conditions: 20 mM Tris-HCl, 30 mM NaCl, 1 mM TCEP, pH 7.7
T1 construct: GST fusion (pGEX-4T-1) in E. coli BL21, GST cut with HRV 3C leaving N-terminal Gly-Pro; synthetic codon-optimised gene; catalytic triad S95, D217, H246; entrance M142, M153, M157; genome GenBank JAVIJP000000000
T1 sequence (A0ABD3DF95 entry or part of it): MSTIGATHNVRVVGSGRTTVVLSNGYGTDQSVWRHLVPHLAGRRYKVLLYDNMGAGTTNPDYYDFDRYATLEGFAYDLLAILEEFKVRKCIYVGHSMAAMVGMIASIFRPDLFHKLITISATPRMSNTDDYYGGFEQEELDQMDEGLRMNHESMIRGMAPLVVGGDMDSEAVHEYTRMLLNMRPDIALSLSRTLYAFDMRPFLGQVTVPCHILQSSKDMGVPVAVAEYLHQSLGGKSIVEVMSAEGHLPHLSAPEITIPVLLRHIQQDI

KAI2d15 [2] = target: T2, KAI2d15 (Castilleja foliolosa, UniProt A0ABD3DF95, M143V/M154V/M158V, form not given); test: differential scanning fluorimetry, SYPRO Orange; format: binding; conditions: 20 mM Tris-HCl, 30 mM NaCl, 1 mM TCEP, pH 7.7
T2 construct: GST fusion (pGEX-4T-1) in E. coli BL21, GST cut with HRV 3C leaving N-terminal Gly-Pro; synthetic codon-optimised gene; catalytic triad S95, D217, H246; entrance M142, M153, M157; genome GenBank JAVIJP000000000
T2 sequence (A0ABD3DF95 entry or part of it M143V/M154V/M158V, form open): as the sequence (A0ABD3DF95 entry or part of it) above, with M143V, M154V, M158V counted along it

KAI2d8 = target: T3, KAI2d8 (Castilleja foliolosa, UniProt A0ABD3DF32); test: differential scanning fluorimetry, SYPRO Orange; format: binding; conditions: 20 mM Tris-HCl, 30 mM NaCl, 1 mM TCEP, pH 7.7
T3 construct: GST fusion (pGEX-4T-1) in E. coli BL21, GST cut with HRV 3C leaving N-terminal Gly-Pro; synthetic codon-optimised gene; genome GenBank JAVIJP000000000
T3 sequence (A0ABD3DF32 1-275): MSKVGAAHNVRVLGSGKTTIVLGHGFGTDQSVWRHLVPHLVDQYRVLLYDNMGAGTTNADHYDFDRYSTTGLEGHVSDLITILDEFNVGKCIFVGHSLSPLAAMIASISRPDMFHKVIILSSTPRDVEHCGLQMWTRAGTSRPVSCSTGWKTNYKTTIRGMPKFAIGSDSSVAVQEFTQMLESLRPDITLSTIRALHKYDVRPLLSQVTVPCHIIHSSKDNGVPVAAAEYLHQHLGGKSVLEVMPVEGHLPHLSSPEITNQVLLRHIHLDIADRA

KAI2d15 [3] = target: T1, KAI2d15; test: fluorescent hydrolysis, Michaelis-Menten; format: biochemical
KAI2d14 = test system: T4, KAI2d14; test: fluorescent hydrolysis, Michaelis-Menten; format: biochemical, Castilleja foliolosa
T4 construct: GST fusion (pGEX-4T-1) in E. coli BL21, GST cut with HRV 3C leaving N-terminal Gly-Pro; synthetic codon-optimised gene; genome GenBank JAVIJP000000000
Description: fluorescent hydrolysis, Michaelis-Menten on KAI2d14 | Michaelis-Menten experiments using the large fluorescent strigolactone analog Yoshimulactone Green (YLG)

KAI2d15 [4] = target: T2, KAI2d15; test: fluorescent hydrolysis, Michaelis-Menten; format: biochemical
KAI2i1 = test system: T5, KAI2i1; test: fluorescent hydrolysis, Michaelis-Menten; format: biochemical, Castilleja foliolosa
T5 construct: GST fusion (pGEX-4T-1) in E. coli BL21, GST cut with HRV 3C leaving N-terminal Gly-Pro; synthetic codon-optimised gene; genome GenBank JAVIJP000000000
Description: fluorescent hydrolysis, Michaelis-Menten on KAI2i1 | Michaelis-Menten experiments using the large fluorescent strigolactone analog Yoshimulactone Green (YLG)

[5] = substrate: CCOC(=O)c1ccccc1-c1c2ccc(=O)cc-2oc2cc(OC3C=C(C)C(=O)O3)ccc12; test: fluorescent hydrolysis, Michaelis-Menten; format: biochemical, Castilleja foliolosa
Description: fluorescent hydrolysis, Michaelis-Menten on KAI2d9 | Michaelis-Menten experiments using the large fluorescent strigolactone analog Yoshimulactone Green (YLG)

[6] = substrate: CCOC(=O)c1ccccc1-c1c2ccc(=O)cc-2oc2cc(OC3C=C(C)C(=O)O3)ccc12; test: fluorescent hydrolysis, Michaelis-Menten; format: biochemical, Castilleja foliolosa; remark: listed apart in the source
Description: fluorescent hydrolysis, Michaelis-Menten on KAI2d8 | Michaelis-Menten experiments using the large fluorescent strigolactone analog Yoshimulactone Green (YLG)

Molecule: CC1=C[C@H](O/C=C2/C(=O)O[C@@H]3C4=C(C[C@H]23)[C@@H](O)CCC4(C)C)OC1=O [strigol]
differential scanning fluorimetry, SYPRO Orange (KAI2d15 [1]): wild-type protein destabilized at lower concentrations of strigol or orobanchol | differential scanning fluorimetry, SYPRO Orange (KAI2d15 [2]): DSF experiments with four different strigolactone molecules, testing both the variant and the wild-type protein

Molecule: CC1=C[C@H](O/C=C2/C(=O)O[C@@H]3c4ccccc4C[C@H]23)OC1=O [GR24 5DO]
differential scanning fluorimetry, SYPRO Orange (KAI2d8): A weaker but discernible destabilization was noted with KAI2d8 | differential scanning fluorimetry, SYPRO Orange (KAI2d15 [2]; printed only as GR24): mutant protein showed destabilization at lower ligand concentrations when GR24 or 5-deoxystrigol were present

Molecule: CC1=CC(OC=C2C(=O)OC3C4=C(CCCC4(C)C)C(O)C23)OC1=O (stereo not shown) [orobanchol]
differential scanning fluorimetry, SYPRO Orange (KAI2d15 [1]): wild-type protein destabilized at lower concentrations of strigol or orobanchol | differential scanning fluorimetry, SYPRO Orange (KAI2d15 [2]): DSF experiments with four different strigolactone molecules, testing both the variant and the wild-type protein

Molecule: CC1=C[C@H](O/C=C2/C(=O)O[C@@H]3C4=C(CCCC4(C)C)C[C@H]23)OC1=O [5-deoxystrigol]
differential scanning fluorimetry, SYPRO Orange (KAI2d15 [1]): DSF experiments with four different strigolactone molecules, testing both the variant and the wild-type protein | differential scanning fluorimetry, SYPRO Orange (KAI2d15 [2]): mutant protein showed destabilization at lower ligand concentrations when GR24 or 5-deoxystrigol were present

Km (KAI2d15 [3]): 0.8 µM | Km (KAI2d14): 1.1 ± 0.3 µM | Km (KAI2d15 [4]): 2.4 µM | Km (KAI2i1): 3.1 ± 0.7 µM
Molecule: CCOC(=O)c1ccccc1-c1c2ccc(=O)cc-2oc2cc(OC3C=C(C)C(=O)O3)ccc12 (stereo not shown) [Yoshimulactone Green]

B1: KAI2d9 (Castilleja foliolosa) (protein)
chain: MSTVGSAHNVQVIGSGETTVVLGHGYGTDQSVWKNLVPHLVDQYKVLLFDNMGAGTTNPDYFDFERYSTLEGYAYDLIAILEEFNVHKCIYVGHSMSAIAGAIASIFRPDLFHKLIMICASPRLTNTGDYYGGFKQEELEQLSGAMESNFQSMAMGRAPLVIGSDLESEAVQEYCRTLFNMRPDISFSVVRTIFALDMRPFLPQVTVPCHIIQSSKDIYVPLSVGEYLHQNLGGKSIVEVMPTQGHLPHLSAPEVTNPVLLRHIQQDIADA
notes: GST fusion (pGEX-4T-1) in E. coli BL21, GST cut with HRV 3C leaving N-terminal Gly-Pro; synthetic codon-optimised gene; genome GenBank JAVIJP000000000
Km [5]: 0.5 ± 0.1 µM | kcat [5]: 600 ± 49 s⁻¹

B2: KAI2d8 (Castilleja foliolosa) (protein)
chain: T3 sequence (A0ABD3DF32 1-275)
notes: as for B1
Km [6]: 6.6 ± 0.2 µM | kcat [6]: 2780 ± 193 s⁻¹
